According to patent US9963445B2, “Chemical compounds” (SYNGENTA PARTICIPATIONS AG, priority 2013, dated 2018):

Key:
Assay type in all cases: in vivo
Alopecurus myosuroides [1] = assay: Pre-emergence herbicidal activity, glasshouse pot test; settings: pre-emergence spray, rate 1000 g/ha, evaluated after 13 days, scale 0-5
Summary of the method: (§1)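 Damage score 0–5 (5 = total damage) read 13 d after spraying. Pots sown, sprayed pre-emergence at day 1 with aqueous spray from acetone/water 50:50 + 0.5% Tween 20 formulation; glasshouse 24/16 °C, 14 h light, 65% RH.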

zea mays [2] = assay: as above; settings: pre-emergence spray, rate 1000 g/ha, evaluated after 13 days, scale 0-5
Summary of the method: as §1

Echinochloa crus-galli [3] = assay: as above; settings: pre-emergence spray, rate 1000 g/ha, evaluated after 13 days, scale 0-5
Summary of the method: as §1

Setaria faberi [4] = assay: as above; settings: pre-emergence spray, rate 1000 g/ha, evaluated after 13 days, scale 0-5
Summary of the method: as §1

Amaranthus retroflexus [5] = assay: as above; settings: pre-emergence spray, rate 1000 g/ha, evaluated after 13 days, scale 0-5
Summary of the method: as §1

Abutilon theophrasti [6] = assay: as above; settings: pre-emergence spray, rate 1000 g/ha, evaluated after 13 days, scale 0-5
Summary of the method: as §1

Alopecurus myosuroides [7] = assay: Post-emergence herbicidal activity, glasshouse pot test; design: key: 0 = no damage to plant, 5 = total damage to plant; settings: Application post-emergence, rate 1000 g/ha, evaluated after 13 days
Summary of the method: (§2)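 Pot-grown seedlings, sown in standard soil, were sprayed 8 days after sowing and kept in a controlled glasshouse (24/16 °C, 14 h photoperiod, 65% humidity). Injury was assessed visually 13 days later on a scale where 5 means total damage.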

zea mays [8] = assay: as above; design: key: 0 = no damage to plant, 5 = total damage to plant; settings: Application post-emergence, rate 1000 g/ha, evaluated after 13 days
Summary of the method: as §2

Echinochloa crus-galli [9] = assay: as above; design: key: 0 = no damage to plant, 5 = total damage to plant; settings: Application post-emergence, rate 1000 g/ha, evaluated after 13 days
Summary of the method: as §2

Setaria faberi [10] = assay: as above; design: key: 0 = no damage to plant, 5 = total damage to plant; settings: Application post-emergence, rate 1000 g/ha, evaluated after 13 days
Summary of the method: as §2

Amaranthus retroflexus [11] = assay: as above; design: key: 0 = no damage to plant, 5 = total damage to plant; settings: Application post-emergence, rate 1000 g/ha, evaluated after 13 days
Summary of the method: as §2

Abutilon theophrasti [12] = assay: as above; design: key: 0 = no damage to plant, 5 = total damage to plant; settings: Application post-emergence, rate 1000 g/ha, evaluated after 13 days
Summary of the method: as §2

## COC1=C(C)C(O)N(c2nccc(C(C)(C)C)n2)C1=O (stereo not drawn) [DI1]
Alopecurus myosuroides [1]
  ALOMY damage score, application pre-emergence: 3
Zea mays [2]
  ZEAMX damage score, application pre-emergence: 2
Echinochloa crus-galli [3]
  ECHCG damage score, application pre-emergence: 5
Setaria faberi [4]
  SETFA damage score, application pre-emergence: 5
Amaranthus retroflexus [5]
  AMARE damage score, application pre-emergence: 5
Abutilon theophrasti [6]
  ABUTH damage score, application pre-emergence: 5
Alopecurus myosuroides [7]
  ALOMY herbicidal damage score: 5
Zea mays [8]
  ZEAMX herbicidal damage score: 1
Echinochloa crus-galli [9]
  ECHCG herbicidal damage score: 5
Setaria faberi [10]
  SETFA herbicidal damage score: 5
Amaranthus retroflexus [11]
  AMARE herbicidal damage score: 5
Abutilon theophrasti [12]
  ABUTH herbicidal damage score: 5

## COC1=C(Br)C(=O)N(c2cc(C(F)(F)F)ccn2)C1O (stereo not drawn) [AJ1, 4-bromo-2-hydroxy-3-methoxy-1-[4-(trifluoromethyl)-2-pyridyl]-2H-pyrrol-5-one]
Alopecurus myosuroides [1]
  ALOMY damage score, application pre-emergence: 4
Zea mays [2]
  ZEAMX damage score, application pre-emergence: 2
Echinochloa crus-galli [3]
  ECHCG damage score, application pre-emergence: 5
Setaria faberi [4]
  SETFA damage score, application pre-emergence: 5
Amaranthus retroflexus [5]
  AMARE damage score, application pre-emergence: 4
Abutilon theophrasti [6]
  ABUTH damage score, application pre-emergence: 5
Alopecurus myosuroides [7]
  ALOMY herbicidal damage score: 5
Zea mays [8]
  ZEAMX herbicidal damage score: 2
Echinochloa crus-galli [9]
  ECHCG herbicidal damage score: 5
Setaria faberi [10]
  SETFA herbicidal damage score: 5
Amaranthus retroflexus [11]
  AMARE herbicidal damage score: 5
Abutilon theophrasti [12]
  ABUTH herbicidal damage score: 5

## CCOc1nc(N2C(=O)C(Cl)=C(C)C2O)ncc1C#N (stereo not drawn) [DF4]
Alopecurus myosuroides [1]
  ALOMY damage score, application pre-emergence: 0
Zea mays [2]
  ZEAMX damage score, application pre-emergence: 0
Echinochloa crus-galli [3]
  ECHCG damage score, application pre-emergence: 0
Setaria faberi [4]
  SETFA damage score, application pre-emergence: 0
Amaranthus retroflexus [5]
  AMARE damage score, application pre-emergence: 0
Abutilon theophrasti [6]
  ABUTH damage score, application pre-emergence: 0
Alopecurus myosuroides [7]
  ALOMY herbicidal damage score: 0
Zea mays [8]
  ZEAMX herbicidal damage score: 0
Echinochloa crus-galli [9]
  ECHCG herbicidal damage score: 0
Setaria faberi [10]
  SETFA herbicidal damage score: 0
Amaranthus retroflexus [11]
  AMARE herbicidal damage score: 0
Abutilon theophrasti [12]
  ABUTH herbicidal damage score: 0

## COC1=C(C)C(O)N(c2ccc(C(=O)NC(C)(C)C)cn2)C1=O (stereo not drawn) [AI24]
Alopecurus myosuroides [1]
  ALOMY damage score, application pre-emergence: 3
Zea mays [2]
  ZEAMX damage score, application pre-emergence: 1
Echinochloa crus-galli [3]
  ECHCG damage score, application pre-emergence: 4
Setaria faberi [4]
  SETFA damage score, application pre-emergence: 4
Amaranthus retroflexus [5]
  AMARE damage score, application pre-emergence: 5
Abutilon theophrasti [6]
  ABUTH damage score, application pre-emergence: 4
Alopecurus myosuroides [7]
  ALOMY herbicidal damage score: 4
Zea mays [8]
  ZEAMX herbicidal damage score: 4
Echinochloa crus-galli [9]
  ECHCG herbicidal damage score: 5
Setaria faberi [10]
  SETFA herbicidal damage score: 5
Amaranthus retroflexus [11]
  AMARE herbicidal damage score: 5
Abutilon theophrasti [12]
  ABUTH herbicidal damage score: 4

## CCC1=C(Cl)C(=O)N(c2cc(C(C)(C)C#N)ncn2)C1O (stereo not drawn) [CF10]
Alopecurus myosuroides [1]
  ALOMY damage score, application pre-emergence: 2
Zea mays [2]
  ZEAMX damage score, application pre-emergence: 4
Echinochloa crus-galli [3]
  ECHCG damage score, application pre-emergence: 4
Setaria faberi [4]
  SETFA damage score, application pre-emergence: 4
Amaranthus retroflexus [5]
  AMARE damage score, application pre-emergence: 5
Abutilon theophrasti [6]
  ABUTH damage score, application pre-emergence: 5
Alopecurus myosuroides [7]
  ALOMY herbicidal damage score: 5
Zea mays [8]
  ZEAMX herbicidal damage score: 5
Echinochloa crus-galli [9]
  ECHCG herbicidal damage score: 5
Setaria faberi [10]
  SETFA herbicidal damage score: 5
Amaranthus retroflexus [11]
  AMARE herbicidal damage score: 5
Abutilon theophrasti [12]
  ABUTH herbicidal damage score: 5

## COc1ccc(N2C(=O)C(Cl)=C(C)C2O)nc1 (stereo not drawn) [AF56]
Alopecurus myosuroides [1]
  ALOMY damage score, application pre-emergence: 0
Zea mays [2]
  ZEAMX damage score, application pre-emergence: 0
Echinochloa crus-galli [3]
  ECHCG damage score, application pre-emergence: 0
Setaria faberi [4]
  SETFA damage score, application pre-emergence: 0
Amaranthus retroflexus [5]
  AMARE damage score, application pre-emergence: 1
Abutilon theophrasti [6]
  ABUTH damage score, application pre-emergence: 2
Alopecurus myosuroides [7]
  ALOMY herbicidal damage score: 4
Zea mays [8]
  ZEAMX herbicidal damage score: 2
Echinochloa crus-galli [9]
  ECHCG herbicidal damage score: 4
Setaria faberi [10]
  SETFA herbicidal damage score: 4
Amaranthus retroflexus [11]
  AMARE herbicidal damage score: 3
Abutilon theophrasti [12]
  ABUTH herbicidal damage score: 5

## CC(C)C1=C(Cl)C(=O)N(c2cc(C(F)(F)F)ccn2)C1O (stereo not drawn) [AF83]
Alopecurus myosuroides [1]
  ALOMY damage score, application pre-emergence: 2
Zea mays [2]
  ZEAMX damage score, application pre-emergence: 1
Echinochloa crus-galli [3]
  ECHCG damage score, application pre-emergence: 2
Setaria faberi [4]
  SETFA damage score, application pre-emergence: 1
Amaranthus retroflexus [5]
  AMARE damage score, application pre-emergence: 2
Abutilon theophrasti [6]
  ABUTH damage score, application pre-emergence: 0
Alopecurus myosuroides [7]
  ALOMY herbicidal damage score: 3
Zea mays [8]
  ZEAMX herbicidal damage score: 0
Echinochloa crus-galli [9]
  ECHCG herbicidal damage score: 2
Setaria faberi [10]
  SETFA herbicidal damage score: 0
Amaranthus retroflexus [11]
  AMARE herbicidal damage score: 0
Abutilon theophrasti [12]
  ABUTH herbicidal damage score: 2

## CC1=C(Cl)C(=O)N(c2cc(C(F)(F)F)cc[n+]2[O-])C1O (stereo not drawn) [AF28]
Alopecurus myosuroides [1]
  ALOMY damage score, application pre-emergence: 0
Zea mays [2]
  ZEAMX damage score, application pre-emergence: 0
Echinochloa crus-galli [3]
  ECHCG damage score, application pre-emergence: 0
Setaria faberi [4]
  SETFA damage score, application pre-emergence: 0
Amaranthus retroflexus [5]
  AMARE damage score, application pre-emergence: 0
Abutilon theophrasti [6]
  ABUTH damage score, application pre-emergence: 0
Alopecurus myosuroides [7]
  ALOMY herbicidal damage score: 1
Zea mays [8]
  ZEAMX herbicidal damage score: 1
Echinochloa crus-galli [9]
  ECHCG herbicidal damage score: 1
Setaria faberi [10]
  SETFA herbicidal damage score: 3
Amaranthus retroflexus [11]
  AMARE herbicidal damage score: 0
Abutilon theophrasti [12]
  ABUTH herbicidal damage score: 3

## COC1=C(C)C(O)N(c2cc(F)ccn2)C1=O (stereo not drawn) [AI23]
Alopecurus myosuroides [1]
  ALOMY damage score, application pre-emergence: 3
Zea mays [2]
  ZEAMX damage score, application pre-emergence: 1
Echinochloa crus-galli [3]
  ECHCG damage score, application pre-emergence: 5
Setaria faberi [4]
  SETFA damage score, application pre-emergence: 4
Amaranthus retroflexus [5]
  AMARE damage score, application pre-emergence: 5
Abutilon theophrasti [6]
  ABUTH damage score, application pre-emergence: 1
Alopecurus myosuroides [7]
  ALOMY herbicidal damage score: 5
Zea mays [8]
  ZEAMX herbicidal damage score: 3
Echinochloa crus-galli [9]
  ECHCG herbicidal damage score: 5
Setaria faberi [10]
  SETFA herbicidal damage score: 5
Amaranthus retroflexus [11]
  AMARE herbicidal damage score: 5
Abutilon theophrasti [12]
  ABUTH herbicidal damage score: 5

## CC1=C(Cl)C(=O)N(c2cc(C(C)(C)F)ccn2)C1O (stereo not drawn) [AF31]
Alopecurus myosuroides [1]
  ALOMY damage score, application pre-emergence: 3
Zea mays [2]
  ZEAMX damage score, application pre-emergence: 2
Echinochloa crus-galli [3]
  ECHCG damage score, application pre-emergence: 4
Setaria faberi [4]
  SETFA damage score, application pre-emergence: 5
Amaranthus retroflexus [5]
  AMARE damage score, application pre-emergence: 5
Abutilon theophrasti [6]
  ABUTH damage score, application pre-emergence: 5
Alopecurus myosuroides [7]
  ALOMY herbicidal damage score: 5
Zea mays [8]
  ZEAMX herbicidal damage score: 5
Echinochloa crus-galli [9]
  ECHCG herbicidal damage score: 5
Setaria faberi [10]
  SETFA herbicidal damage score: 5
Amaranthus retroflexus [11]
  AMARE herbicidal damage score: 5
Abutilon theophrasti [12]
  ABUTH herbicidal damage score: 5

## COC1=C(OC)C(O)N(c2cc(OC)ccn2)C1=O (stereo not drawn) [AK6]
Alopecurus myosuroides [1]
  ALOMY damage score, application pre-emergence: 0
Zea mays [2]
  ZEAMX damage score, application pre-emergence: 0
Echinochloa crus-galli [3]
  ECHCG damage score, application pre-emergence: 0
Setaria faberi [4]
  SETFA damage score, application pre-emergence: 0
Amaranthus retroflexus [5]
  AMARE damage score, application pre-emergence: 0
Abutilon theophrasti [6]
  ABUTH damage score, application pre-emergence: 0
Alopecurus myosuroides [7]
  ALOMY herbicidal damage score: 1
Zea mays [8]
  ZEAMX herbicidal damage score: 0
Echinochloa crus-galli [9]
  ECHCG herbicidal damage score: 1
Setaria faberi [10]
  SETFA herbicidal damage score: 0
Amaranthus retroflexus [11]
  AMARE herbicidal damage score: 0
Abutilon theophrasti [12]
  ABUTH herbicidal damage score: 1

## CCc1cc(N2C(=O)C(Cl)=C(C)C2O)ncc1Br (stereo not drawn) [AF99]
Alopecurus myosuroides [1]
  ALOMY damage score, application pre-emergence: 2
Zea mays [2]
  ZEAMX damage score, application pre-emergence: 1
Echinochloa crus-galli [3]
  ECHCG damage score, application pre-emergence: 2
Setaria faberi [4]
  SETFA damage score, application pre-emergence: 1
Amaranthus retroflexus [5]
  AMARE damage score, application pre-emergence: 2
Abutilon theophrasti [6]
  ABUTH damage score, application pre-emergence: 0
Alopecurus myosuroides [7]
  ALOMY herbicidal damage score: 5
Zea mays [8]
  ZEAMX herbicidal damage score: 1
Echinochloa crus-galli [9]
  ECHCG herbicidal damage score: 5
Setaria faberi [10]
  SETFA herbicidal damage score: 4
Amaranthus retroflexus [11]
  AMARE herbicidal damage score: 5
Abutilon theophrasti [12]
  ABUTH herbicidal damage score: 5
